Reference: patent US6818413B2, “Fluorescence-based high throughput screening assays for protein kinases and phosphatases” (Pharmacia and Upjohn Company, priority 1997, dated 2004)

Biological target: MBL Monoclonal anti-phosphotyrosine antibody (clone 6D12)
Assay: Competitive displacement of P-Tyr-F from MBL antibody, fluorescence quenching
Type: binding
Settings: displacement of P-Tyr-F 1.7 nM from MBL antibody 7.1 nM sites, nM sites (normality), read-out: MBL Monoclonal Kd, nM Φ
Method: FIGS. 5A and 5B: […] MBL antibody, 7.1 nM sites and P-Tyr-F, 1.7 nM were preincubated, and displacement initiated by the addition of a concentrated solution of phosphotyrosine. The increase in emission intensity and decrease in FP were monitored as a function of added phosphoryltyrosine. The data were analyzed as described in FIG. 3. FIGS. 7A, 7B, 7C, and 7D: FIGS. 7A, 7B, 7C, and 7D are graphs showing the competitive displacement of P-Tyr-F from MBL antibody by phosphorylated JAK-2 peptide substrates JAK-2(a) (FIGS. 7A and 7B) and JAK-2(b) (FIGS. 7C and 7D). All procedures were as described in FIG. 5. For both peptides, fixed antibody=7.1 nM sites and P-Tyr-F=1.7 nM. Antibody binding to the fluoresceinated phosphorylamino acids was monitored by adding successive small volumes of the antibody stock solution to a cuvette containing a fixed amount of fluoresceinated phosphorylamino acid in two milliliters of pH 7.4 buffer (25 mM Tris and 25 mM NaCl adjusted to pH 7.4 with HCl). The fluorescence polarization, anisotropy, and the intensity—the sum of vertically and horizontally polarized emissions—were recorded one minute after each addition. The dilution produced by the addition of the antibody necessitated a slight correction for both the concentrations and the intensity readings but not for the polarization since the latter is independent of the fluorophore concentration. […]

NC(Cc1ccc(OP(=O)(O)O)cc1)C(=O)O (stereo not shown) [Phosphoryltyrosine]
Kd: 5.4 ± 0.5 nM
